Reference: PMC4216214 (Journal of Medicinal Chemistry, 2014)

Key:
rNTS1 receptor = rNTS1 receptor (Rattus norvegicus, UniProt P20789); assay: Calcium mobilization assay for NTS1 receptor; assay type: cell-based; settings: for activity at NTS1: NTS1 FLIPR calcium assay
rNTS2 receptor [1] = molecular target: T1, rNTS2 receptor (Rattus norvegicus, UniProt Q63384); assay: Calcium mobilization assay for NTS2 receptor; assay type: cell-based; settings: calcium mobilization relative to 5b
T1 sequence (Q63384 1-416): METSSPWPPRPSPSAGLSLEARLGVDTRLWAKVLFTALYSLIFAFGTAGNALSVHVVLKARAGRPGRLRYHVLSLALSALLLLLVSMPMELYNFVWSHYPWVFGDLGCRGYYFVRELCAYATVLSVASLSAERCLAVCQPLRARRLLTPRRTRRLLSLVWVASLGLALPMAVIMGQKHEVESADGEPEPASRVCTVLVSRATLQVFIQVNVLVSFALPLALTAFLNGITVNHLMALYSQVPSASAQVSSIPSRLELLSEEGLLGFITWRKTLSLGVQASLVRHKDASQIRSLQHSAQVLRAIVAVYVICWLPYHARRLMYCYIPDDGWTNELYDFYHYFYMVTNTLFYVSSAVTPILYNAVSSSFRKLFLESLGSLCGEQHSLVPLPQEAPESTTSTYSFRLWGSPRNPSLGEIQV

rNTS2 receptor [2] = molecular target: T1, rNTS2 receptor; assay: Competitive [125I]NT whole-cell binding assay, CHO-k1 cells overexpressing rNTS2

rNTS1 receptor, sequence (P20789 whole entry): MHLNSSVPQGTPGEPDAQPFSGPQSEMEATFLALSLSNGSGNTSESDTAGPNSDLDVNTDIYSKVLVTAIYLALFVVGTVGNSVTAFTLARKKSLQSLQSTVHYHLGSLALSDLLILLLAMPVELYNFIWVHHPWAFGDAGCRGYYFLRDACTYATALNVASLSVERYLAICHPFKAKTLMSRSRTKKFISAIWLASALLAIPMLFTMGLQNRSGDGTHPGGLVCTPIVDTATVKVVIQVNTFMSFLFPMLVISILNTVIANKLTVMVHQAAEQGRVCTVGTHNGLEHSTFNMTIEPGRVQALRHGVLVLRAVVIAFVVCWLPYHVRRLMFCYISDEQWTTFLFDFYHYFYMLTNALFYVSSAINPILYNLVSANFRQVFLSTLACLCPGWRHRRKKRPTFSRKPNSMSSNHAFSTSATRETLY

**Q.** With `COc1cccc(OC)c1-c1cc(C(=O)NC2(C(=O)O)C3CC4CC(C3)CC2C4)nn1-c1ccc(C(=O)N(C)CCCN(C)C)cc1C(C)C` (stereo not drawn) [Compound 5b] as the compound, how does the Kb (rNTS1 receptor) read?
**A.** Its Kb is 1.5 ± 0.6 nM.

**Q.** `COc1cccc(OC)c1-c1cc(C(=O)NC2(C(=O)O)C3CC4CC(C3)CC2C4)nn1-c1ccnc2cc(Cl)ccc12` (stereo not drawn) [Compound 5a] was tested. Which Kb (rNTS1 receptor) did it give?
**A.** The Kb was 4.7 ± 0.8 nM.

**Q.** What about the “NTS2 Emax (FLIPR assay)” value (rNTS2 receptor [1]) of the same compound?
**A.** The value was 100 % 5b.

**Q.** `COc1ccccc1-c1cc(C(=O)NC2(C(=O)O)CCCCC2)nn1-c1ccc(F)cc1` [Compound 7b, 1-({[1-(4-Fluorophenyl)-5-(2-methoxyphenyl)-1H-pyrazol-3-yl]carbonyl}amino)cyclohexanecarboxylic Acid] was tested. Which “activity at NTS1” value (rNTS1 receptor) did it give?
**A.** Its value is “neither calcium nor binding activity at NTS1”.

**Q.** What about the “NTS2 Emax (FLIPR assay)” value (rNTS2 receptor [1]) of the same compound?
**A.** Its value is 7±2 % 5b.

**Q.** With `C[C@@H]1CN([C@H]2CC[C@](C#N)(c3ccc(F)cc3)CC2)CC[C@]1(C(=O)O)c1ccccc1` [Compound 6, levocabastine] as the compound, how does the “activity at NTS1” value (rNTS1 receptor) read?
**A.** Its value is “no activity at NTS1”.

**Q.** And the “NTS2 Emax (FLIPR assay)” value (rNTS2 receptor [1])?
**A.** The value was 16 % 5b.

**Q.** Which results are given for `COc1cccc(OC)c1-c1cc(C(=O)NC2C3CC4CC(C3)CC2C4)nn1-c1ccnc2cc(Cl)ccc12` (stereo not drawn) [Compound 13, 1-(7-Chloroquinolin-4-yl)-5-(2,6-dimethoxyphenyl)-N-tricyclo[3.3.1.13,7]dec-2-yl-1H-pyrazole-3-carboxamide]?
**A.** activity at NTS1 (rNTS1 receptor): inactive; Ki (rNTS2 receptor [2]): > 11000 nM
